The subject of series [1] is HNSCC patient-derived NK cells. The experiment in a line: CXCL1 ELISA of NK cell culture supernatant. It is filed as cell-based, Human. The procedure:
Healthy donor and HNSCC NK cells were isolated from PBMCs and were treated for 24 hrs with vehicle or metformin. Supernatant was collected and analyzed by ELISA (analyzed by one way ANOVA. n=10).
HNSCC NK cells were isolated from PBMCs and treated with vehicle, 12 mM metformin, 50 ng CXCL1, 10 uM everolimus, or 10 uM BP-1-102 for 24 hr. The cells were washed and plated in fresh media. After 24 hrs, supernatant was collected for ELISA.
A general note: An ELISA detects its analyte on a solid surface through an enzyme-linked reagent.

Series [2] has as its system HNSCC patient-derived NK cells. The experiment in a line: NK cell perforin ELISA after co-culture with Cal27 cells. The class given is cell-based, Human. The settings on record: for reversal of CXCL1 mediated inhibition of perforin: 50 ng CXCL1, Cal27 4 hours. Here is the method: For NK cell perforin assays, NK cells were treated with drug for 24 hrs, washed, and co-cultured with Cal27 cells for 4 hours. Supernatant was then collected, snap frozen in liquid nitrogen and stored at −80 until thawed for single use. For patient samples, undiluted plasma was added directly to ELISA. ELISA kit for perforin was obtained from ABCAM. ELISA was performed according to the manufacturer's protocol. Protocols included overnight coating of capture antibody diluted by lot number recommendation, 1 hr block with 400 uL 2% BSA in PBS, 2 hr sample incubation at room temperature of 100 uL sample (no dilution of sample was performed in these experiments), 2 hr […] diluted by lot number recommendation, 20 min Streptavidin incubation with 100 uL of 1:40 dilution of stock, and 15 min incubation with 100 uL included TMB ELISA reagent. 50 uL stop solution of in house 2N […] was added to stop reaction before reading at […] wavelength on plate reader. All plates included standard curve prepared per lot number recommendation with range of 35-2000 pg.
HNSCC patient-derived NK cells were treated with exogenous CXCL1 and an inhibitor of the CXCL1 receptor, CXCR2, or metformin. Patient-derived NK cells were exposed to Cal27 cells for 4 hours and supernatant was collected for perforin analysis by ELISA. Specifically, HNSCC NK cells derived from PBMCs were treated with 50 ng CXCL1, 12 mM metformin, or 10 nM CXCR2i (navarixin) and subjected to perforin against Cal27 target cells. Cells were analyzed by flow and analyzed by one way ANOVA. n=8.
Specifically, HNSCC NK cells were treated with vehicle, metformin, or 10 uM AMPK inhibitor (Dosomorphin) for 24 hrs, washed, and co-cultured with Cal27 cells for 4 hrs. Supernatant was collected for ELISA and analyzed by one way ANOVA. n=5.
HNSCC patient-derived NK cells were treated with vehicle, metformin, 10 uM mTOR inhibitor (Everolimus), or 10 uM mTOR activator (MHY1485) for 24 hrs, washed, and co-cultured with Cal27 cells for 4 hrs. Supernatant was collected for ELISA and analyzed by one way ANOVA. n=5.
As pSTAT1 can modulate perforin production, HNSCC patient-derived NK cells were treated with vehicle, […], or 10 uM of pSTAT1i inhibitor Fludarabine for 24 hrs, washed, and co-cultured with Cal27 cells for 4 hrs.
HNSCC NK cells were treated with vehicle, 12 mM metformin, 50 ng CXCL1, or 10 uM pSTAT3 inhibitor BP-1012 and co-cultured with Cal27 cells for 4 hrs. Supernatant was collected for ELISA and analyzed by one way ANOVA. n=5.

The next series concerns HNC cells. The experiment in a line: Natural killer cytotoxicity assay (NKCA), NK cells against CFSE labeled HNC cells (7AAD). The class given is cell-based. The settings on record: exogenous CXCL1 added to metformin treated NK cells. The procedure: FIG. 12B is a graph showing NK cells that were treated with either pembrolizumab (PD-1 inhibitor), exogenous CXCL1, Navaxarin (CXCR2 inhibitor) or combination and combined with CFSE labeled HNC cells. Cytotoxicity was measured by 7AAD 4 hours after incubation. N=5, PBMCS or NK cells isolated from the same PBMCs from patient samples.
NK cells were isolated from PBMCs using the EasySep Human NK Cell Isolation Kit (Stem Cell Technologies). Cells were washed in Robobuffer and treated with drug indicated in legend for 24 hrs in culture medium. One day before co-culture, cells were collected, washed, and stained with 5(6)-Carboxyfluorescein diacetate N-succinimidyl ester (CFDA-SE) (StemCell Technologies). Untreated UMSCC47, Cal-27, or matched primary HNC tumor cell lines cells were plated at 20,000 cell/ml and assumed to double overnight. NK cells were resuspended in RPMI 1640 (Corning) with 5% human serum at a density of 200,000 cells/ml. Cells were co-cultured for a Target:Effector ratio of 1:5 for 4 hrs, collected, and washed in flow buffer. Cells were then stained with 7AAD Viability Staining Solution (Biolegend). Cells were immediately run on a 4-laser BD Instrument (University of Cincinnati Cancer Cell Biology Department, Cincinnati, Ohio). […] NK killed cells were calculated by the following equation: (% CSFE+7AAD+experimental co-culture)−(% CSFE+7AAD+control no co-culture).

In the next series the test system is pSTAT1. The experiment in a line: Western blot of HNSCC NK cell lysates, pSTAT1. As to conditions: metformin or 50 ng CXCL1, 24 hrs, FIG. 3A/3B. It is filed as cell-based, Human. The procedure:
NK92, Cal27, UMSCC47 and HN5 cells were cultured with drug as described. Cells were collected in RIPA (0.05% sodium deoxycholate, […], 0.1% SDS, 1% NP-40) and protein content was analyzed by Pierce BCA kit (Thermo 23225). 50 ug of protein was diluted in 1×loading buffer (SDS, bromophenol blue, 47% glycerol, Tris 0.5M pH 6.8, 0.2 mM DTT-G) and heated to 90° C. for 3 minutes. Prepared lysate was loaded into gradient gels (Biorad 4561093) and run at 85V for 1.5 hour in Biorad casing with a Biorad powerpack in 1×running buffer (Tris, Glycine, SDS). Gels were transferred on nitrocellulose and run at 100V on bench for 1 hour in 1×transfer buffer (Tris, Glycine). […] Images were analyzed in Image Studio Lite V 5.2.
To determine what those pathways could be, pathways known to be affected by both metformin and CXCL1 were investigated. pSTAT3 and mTOR are known to be increased by activation of the CXCR2 receptor, and mTOR activation can inhibit pSTAT1 expression. […] Therefore, HNSCC patient-derived NK cells treated with metformin, CXCL1, or CXCR2i (navaxarin) were collected and analyzed by western blot analysis. Head and neck squamous cell carcinoma (HNSCC) natural killer (NK) cells were treated with metformin, 50 ng CXCL1, or 10 uM CXCR2i (navarixin) for 24 hrs and collected for lysates analyzed by western blot analysis (FIG. 3A).
On the technique in general: Immunoblotting shows a protein as a band on a membrane.

The next series deals with pSTAT3. The experiment in a line: Western blot of HNSCC NK cell lysates, pSTAT3. The class given is cell-based, Human. Here is the method:
NK92, Cal27, UMSCC47 and HN5 cells were cultured with drug as described. Cells were collected in RIPA (0.05% sodium deoxycholate, […], 0.1% SDS, 1% NP-40) and protein content was analyzed by Pierce BCA kit (Thermo 23225). 50 ug of protein was diluted in 1×loading buffer (SDS, bromophenol blue, 47% glycerol, Tris 0.5M pH 6.8, 0.2 mM DTT-G) and heated to 90° C. for 3 minutes. Prepared lysate was loaded into gradient gels (Biorad 4561093) and run at 85V for 1.5 hour in Biorad casing with a Biorad powerpack in 1×running buffer (Tris, Glycine, SDS). Gels were transferred on nitrocellulose and run at 100V on bench for 1 hour in 1×transfer buffer (Tris, Glycine). Membranes were blocked in 5% BSA in TBS for 1 hr, washed, and incubated in primary diluted in 2% BSA in TBS overnight. Membranes were washed and incubated in Licor secondary (Licor 926-32211 and 925-68070) in 5% BSA in TBS for 1 hr. Membranes were washed and imaged on a Licor Odyssey Clx. Images were analyzed in Image Studio Lite V 5.2.
To determine what those pathways could be, pathways known to be affected by both metformin and CXCL1 were investigated. pSTAT3 and mTOR are known to be increased by activation of the CXCR2 receptor, and mTOR activation can inhibit pSTAT1 expression. Metformin is also hypothesized to inhibit pSTAT3 and mTOR in NK cells. Therefore, HNSCC patient-derived NK cells treated with metformin, CXCL1, or CXCR2i (navaxarin) were collected and analyzed by western blot analysis. Head and neck squamous cell carcinoma (HNSCC) natural killer (NK) cells were treated with metformin, 50 ng CXCL1, or 10 uM CXCR2i (navarixin) for 24 hrs and collected for lysates analyzed by western blot analysis (FIG. 3A).

Series [3] has as its system CXCL1. The experiment in a line: Patient plasma CXCL1 ELISA, trial NCT02641093 (pre and post pembrolizumab). The class given is in vivo, Human.
Series [4] deals with CXCL1. The experiment in a line: Plasma CXCL1 of pembrolizumab treated head and neck cancer patients (FIG. 11). It is filed as in vivo, Human. As to conditions: pembrolizumab treated patients vs baseline; preliminary data. The text has this:
CXCL1 was knocked out by CRISP-Cas9 in NK cells as a novel approach in order to enhance their tumor cytotoxicity. These NK cells can be used as an “off the shelf” anti-cancer therapeutic. […] In addition, CXCL1 functions were inhibited with a CXCR2 inhibitor as an alternative treatment strategy with and without addition of a PD-1 inhibitor. […] In addition, the combination of pembrolizumab and CXCR2 inhibitor (Navaxarin) increases both PBMC and NK cell cytotoxicity (FIGS. 12A, 12B and 13).

Setting [5] is: combination of 10 uM everolimus and 10 uM BP-1-102, also with 50 ng CXCL1, n=5.
[6] abbreviates: single agent (12 mM metformin, 10 uM everolimus or 10 uM BP-1-102) 24 hr, fresh media 24 hrs, n=5, FIG. 8.
The mark [7] stands for this setting: 10 uM single agent 24 hrs, Cal27 co-culture 4 hrs, n=5, FIG. 5.

As to `CN(CC(=O)N(Cc1ccc(C2CCCCC2)cc1)c1ccc(C(=O)O)c(O)c1)S(=O)(=O)c1c(F)c(F)c(F)c(F)c1F` [BP-1-102], the CXCL1 secretion entry is “decreased levels down to those similar of metformin even in the presence of CXCL1” in series [1] (setting [5]) and “did not reduce CXCL1” in series [1] (setting [6]). Further, the “rescue of CXCL1 mediated suppression of perforin” value in series [2] (10 uM pSTAT3 inhibitor with 50 ng CXCL1, alone or with 12 mM metformin, Cal27 4 hrs, n=5) is on record as “able to rescue CXCL1 mediated suppression of perforin both alone or in presence of metformin”. The perforin result in series [2] (10 uM pSTAT3 inhibitor, baseline, Cal27 co-culture 4 hrs, n=5, FIG. 7) is reported as “no effect on perforin at baseline”.

On to `CC[C@@H](Nc1c(Nc2cccc(C(=O)N(C)C)c2O)c(=O)c1=O)c1ccc(C)o1` [CXCR2 inhibitor, Navarixin], for which the “reversal of CXCL1 mediated inhibition of perforin” value was “reversed CXCL1 mediated inhibition” in series [2] (10 nM CXCR2i (navarixin) alone, n=8) and “reversed CXCL1 mediated inhibition” in series [2] (10 nM CXCR2i (navarixin) in combination with 12 mM metformin, n=8).

`CO[C@H]1C[C@@H]2CC[C@@H](C)[C@@](O)(O2)C(=O)C(=O)N2CCCC[C@H]2C(=O)O[C@H]([C@H](C)C[C@@H]2CC[C@@H](OCCO)[C@H](OC)C2)CC(=O)[C@H](C)/C=C(\C)[C@@H](O)[C@@H](OC)C(=O)[C@H](C)C[C@H](C)/C=C/C=C/C=C/1C` [Everolimus]: the CXCL1 secretion result in series [1] (setting [5]) was “decreased levels down to those similar of metformin even in the presence of CXCL1”; in series [1] (setting [6]) it was “did not reduce CXCL1”. Besides, the perforin production result in series [2] (10 uM Everolimus in combination with metformin 24 hrs, Cal27 co-culture 4 hrs, n=5) is on record as “did not increase perforin over either agent alone”; in series [2] (setting [7]), “enhanced perforin production similar to metformin”.

For `O=[N+]([O-])c1ccc(Nc2nc(N3CCOCC3)nc(N3CCOCC3)n2)cc1` [MHY1485], the perforin production result in series [2] (setting [7]) is reported as “did not result in suppression of perforin”.

Regarding C-X-C motif chemokine ligand 1 [CXCL1], the metformin induced cytotoxicity result in the series with HNC cells is recorded as “ablated metformin induced cytotoxicity”. For the same molecule, in series [2] (12 mM metformin or 50 ng CXCL1, Cal27 target cells 4 hours, n=8, FIG. 2), the perforin production result is “reduced NK cell perforin production”. The “metformin mediated NK degranulation” value in series [2] (exogenous CXCL1 added to metformin, FIG. 2) is “reverses metformin mediated NK degranulation”. Moreover, the pSTAT1 result in the series on pSTAT1 is reported as “did not reverse pSTAT1 expression with metformin or change it from baseline”. Besides, in the series on pSTAT3 (exogenous CXCL1 (50 ng) together with metformin, 24 hrs), the “metformin reduction of pSTAT3” value was “reversed”. Besides, the pSTAT3 result with pSTAT3 (metformin or 50 ng CXCL1, 24 hrs, western blot, FIG. 3A/3B) is “increases pSTAT3”.

For pembrolizumab, the “plasma CXCL1” value with CXCL1 [3] (all patients, post vs pre pembrolizumab, FIG. 10A) is “significant increase in CXCL1”; in the series with CXCL1 [3] (divided into responders and non-responders, n=10 each, FIG. 10B), “non-responders accounted for the increase”; in the series with CXCL1 [3] (divided into responders and non-responders, n=10 each, FIG. 10B, listed as Pembrolizumab), “increased with non-responders”. In addition, the CXCL1 in plasma result in the series with CXCL1 [4] was “trend to higher levels of CXCL1”.

(Values after patent US20260102492A1, “Inhibition of Natural Killer Cell Cytoxocity” (University of Cincinnati, priority 2022, published 2026).)
